Measured values from US10849926B2, “GM3-promoted inflammation inhibitor and inflammatory cytokine production inhibitor” (THE NOGUCHI INSTITUTE, priority 2015, dated 2020).

Tests used:
[1] = test system: Human peripheral blood-derived monocytes (CD14 positive cells); test: LPS-dependent inflammatory cytokine production in human peripheral blood-derived monocytes (ELISA); type: cell-based; conditions: LPS 0.125 ng/mL + 1.25, 2.5, or 5.0 μM ganglioside; for production of IL-6 by LPS: 18 hours (FIG. 8); for production of IL-1β by LPS: 18 hours (FIG. 9); for production of TNF-α by LPS: 18 hours (FIG. 10)
Method: (§1) Human peripheral blood-derived monocytes (CD14 positive cells) were cultured in DMEM (Low Glucose) containing 0.5% FCS and 25 ng/mL of granulocyte/macrophage colony stimulating factor, and co-stimulated with 0.125 ng/mL of E. coli-derived lipopolysaccharide (LPS, E. coli O111:B4), and 1.25, 2.5, or 5.0 μM of N-mix (neutral glycosphingolipid mixture (Glc-Cer, Lac-Cer, Gb3, and Gb4)) or each of the ganglioside molecular species. 18 hours later, the inflammatory cytokines (IL-6, IL-1β, and TNF-α) secreted in the culture supernatant were quantitated using the ELISA method.

human monocytes = test: IL-6 production in human monocytes by LPS with or without GM3C22 or GM3C24 (ELISA); type: cell-based; conditions: for production of IL-6 in response to stimulation promoted by the addition of GM3C22 and GM3C24: LPS 0.06 ng/mL + GM3C22 or GM3C24, 18 hours (FIG. 11); for production of IL-6 in response to LPS stimulation: LPS 0.06 ng/mL only, 18 hours (FIG. 11)
Method: as §1
Under the same culture conditions as in Example 5, “GM3C16”, “GM3C18” or “GM3C24:1” which inhibited inflammation was combined to “GM3C22” or “GM3C24” which promoted inflammation. The resultant combination was added to the monocytes and further stimulated with 0.06 ng/mL of LPS (i.e., a TLR4 activating factor). 18 hours later, the inflammatory cytokine IL-6 secreted in the culture supernatant was quantitated using the ELISA method.

TLR4 = test: IL-6 production in human monocytes stimulated with LPS (TLR4 activating factor); type: cell-based; conditions: LPS 0.125 ng/mL, 5 μM GM3 molecular species, 18 hours (FIG. 12)
Method: as §1
(§2) Then, under the same culture conditions as in Example 5, human monocytes were stimulated using any of 0.125 ng/mL of LPS (i.e., TLR4 activating factor), 5.0 μg/mL of high mobility group box 1 (HMGB 1) (i.e., a TLR4 and TLR2 activating factors), 20 ng/mL of Pam3Csk4 (i.e., a TLR1 and TLR2 activating factors), 1.0 ng/mL of MALP-2 (i.e., TLR2 and TLR6 activating factors), 50 ng/mL of Flagellin (i.e., a TLR5 activating factor), and 250 ng/mL of R-848 (i.e., TLR7 and TLR8 activating factors); and 5 μM of GM3 molecular species. 18 hours later, the inflammatory cytokine IL-6 secreted in the culture supernatant was quantitated using the ELISA method.

TLR4 and TLR2 = test: IL-6 production in human monocytes stimulated with HMGB1 (TLR4 and TLR2 activating factor); type: cell-based; conditions: HMGB 1 5.0 μg/mL, 5 μM GM3 molecular species, 18 hours (FIG. 12)
Method: as §1, §2

TLR1 and TLR2 = test: IL-6 production in human monocytes stimulated with Pam3Csk4 (TLR1 and TLR2 activating factor); type: cell-based; conditions: Pam3Csk4 20 ng/mL, 5 μM GM3 molecular species, 18 hours (FIG. 12)
Method: as §1, §2

[2] = test system: Toll-like receptor (TLR) on human monocytes; test: IL-6 production in human monocytes stimulated with other TLR activating factors (Pam3Csk4, MALP-2, Flagellin, R-848); type: cell-based; conditions: 5 μM GM3 molecular species, 18 hours (FIG. 12)
Method: as §1, §2

RAW 264.7 cells [3] = test: LPS-dependent TNF-α production in RAW 264.7 cells (ELISA); type: cell-based, mouse; conditions: for TNF-α production by LPS on addition of 1 μM or less of ganglioside: LPS 2.0 ng/mL (FIG. 4); for TNF-α production by LPS: LPS 0.5 ng/mL + each glycosphingolipid 1.0 μM, 0.5% fetal bovine serum, 18 hours (FIG. 3); for inflammation promoted by LPS (LPS-dependent TNF-α production): LPS 2.0 ng/mL + glycosphingolipid 0.25 to 2.0 μM, 18 hours (FIG. 4)
Method: A serum ganglioside mimic resembling the composition of these gangliosides was used to treat a macrophage-like cultured cell line in which the serum in the medium was removed and reduced: RAW 264.7 cells (0.5% fetal bovine-derived serum). Then, an actual influence on TNF-α production by TLR4 ligand (LPS) stimulation was examined.
RAW 264.7 cells cultured overnight in DMEM containing 0.5% fetal bovine serum were co-stimulated by 0.5 ng/mL of lipopolysaccharide (LPS) and ganglioside (serum ganglioside mimic) at a concentration resembling the composition of serum ganglioside. 18 hours later, the TNF-α in the culture supernatant was quantitated by an ELISA method.
RAW 264.7 cells cultured overnight in DMEM containing 0.5% fetal bovine serum were co-stimulated by LPS (0.5 ng/mL) and each glycosphingolipid (1.0 μM). 18 hours later, the TNF-α in the culture supernatant was quantitated by the ELISA method.
RAW 264.7 cells cultured overnight in DMEM containing 0.5% fetal bovine serum were co-stimulated by LPS (2.0 ng/mL) and each glycosphingolipid (0.25 to 2.0 μM). 18 hours later, the TNF-α in the culture supernatant was quantitated by the ELISA method.

RAW 264.7 cells [4] = test: Cooperative TNF-α production by LPS and GM3 in RAW 264.7 cells (ELISA); type: cell-based, mouse; conditions: LPS 0.5 ng/mL; for TNF-α production by LPS and GM3 on addition of 1 μM or less of ganglioside: 1 μM (GM3 ratio; 10:1) or less, GM3 5.0 μM (FIG. 5); for synergistic increases in productions of TNF-α by GM3 and LPS: glycosphingolipid 0.25 to 1.0 μM
Method: RAW 264.7 cells cultured overnight in DMEM containing 0.5% fetal bovine serum were co-stimulated by each glycosphingolipid (0.25 to 1.0 μM), LPS (0.5 ng/mL), and GM3 (5.0 μM). 18 hours later, the TNF-α in the culture supernatant was quantitated by the ELISA method.

[5] = test system: bone marrow-derived macrophages (BMDMs); test: LPS-dependent TNF-α production in bone marrow-derived macrophages (ELISA); type: cell-based, mouse; conditions: LPS 0.5 ng/mL + glycosphingolipid 10 μM, 18 hours (FIG. 6)
Method: (§3) Bone marrow-derived cells harvested from the femur and tibia of C57/BL6 mice were induced to differentiate for one week using 20 ng/mL of recombinant macrophage colony-stimulating factor (M-CSF). The obtained bone marrow-derived macrophages (BMDMs) were cultured overnight in DMEM containing 0.5% fetal bovine serum and co-stimulated with LPS (0.5 ng/mL) and each glycosphingolipid (10 μM). 18 hours later, the TNF-α in the culture supernatant was quantitated by the ELISA method.

[6] = test system: bone marrow-derived macrophages (BMDMs); test: Cooperative TNF-α production by LPS and GM3 in bone marrow-derived macrophages (ELISA); type: cell-based, mouse; conditions: LPS 0.5 ng/mL, GM3 10 μM, glycosphingolipid 10 μM, 18 hours (FIG. 7)
Method: as §3, with “ng/mL), GM3 (10 μM),” for “ng/mL)”, “μM). After” for “μM).”, “hours,” for “hours later,”, “quantified” for “quantitated”

Compound | production of IL-6 by LPS [1] | production of IL-1β by LPS [1] | production of TNF-α by LPS [1] | production of IL-6 in response to stimulation promoted by the addition of GM3C22 and GM3C24 (human monocytes) | production of IL-6 in response to LPS stimulation (human monocytes) | IL-6 production by LPS (TLR4) | IL-6 production by HMGB1 (TLR4 and TLR2) | IL-6 production by Pam3Csk4 (TLR1 and TLR2) | IL-6 production in other TLR activating factors [2] | TNF-α production by LPS on addition of 1 μM or less of ganglioside (RAW 264.7 cells [3]) | TNF-α production by LPS (RAW 264.7 cells [3]) | inflammation promoted by LPS (LPS-dependent TNF-α production) (RAW 264.7 cells [3]) | TNF-α production by LPS and GM3 on addition of 1 μM or less of ganglioside (RAW 264.7 cells [4]) | synergistic increases in productions of TNF-α by GM3 and LPS (RAW 264.7 cells [4]; GM3 5.0 μM, 18 hours (FIG. 5)) | LPS-dependent TNF-α production in bone marrow-derived macrophages [5] | cooperative TNF-α production by LPS and GM3 in bone marrow-derived macrophages [6] | IC50 (RAW 264.7 cells [4]; TNF-α production, GM3 5.0 μM, 18 hours (FIG. 5), read-out: 50% inhibitory concentration for cooperative activation of LPS and GM3) [µM]
CCCCCCCCCCCCCC=CC(O)C(COC1OC(CO)C(OC2OC(CO)C(O)C(OC3(C(=O)O)CC(O)C(NC(C)=O)C(C(O)C(O)CO)O3)C2O)C(O)C1O)NC(=O)CCCCCCCCCCCCCCCCC (centres unmarked) [GM3C18] | inhibiting | inhibiting | inhibiting | strongly inhibited | strongly inhibited | inhibitory action | inhibitory action | inhibitory action was also observed | – | – | – | – | – | – | – | – | –
CCCCCCCCCCCCCC=CC(O)C(COC1OC(CO)C(OC2OC(CO)C(O)C(OC3(C(=O)O)CC(O)C(NC(C)=O)C(C(O)C(O)CO)O3)C2O)C(O)C1O)NC(=O)C(O)CCCCCCCCCCCCCCCCCCCCCC (centres unmarked) [GM3hC24, reference compound] | significantly enhanced | significantly enhanced | significantly enhanced | – | – | selectively increased | selectively increased | – | no increase | – | – | – | – | – | – | – | –
CCCCCCCCCCCCCC=CC(O)C(COC1OC(CO)C(OC2OC(CO)C(O)C(OC3(C(=O)O)CC(O)C(NC(C)=O)C(C(O)C(O)CO)O3)C2O)C(O)C1O)NC(=O)CCCCCCCCCCCCCCCCCCCCC (centres unmarked) [GM3C22, reference compound] | significantly enhanced | significantly enhanced | significantly enhanced | – | – | selectively increased | selectively increased | – | no increase | – | – | – | – | – | – | – | –
CCCCCCCCC=CCCCCCCCCCCCCCC(=O)NC(COC1OC(CO)C(OC2OC(CO)C(O)C(OC3(C(=O)O)CC(O)C(NC(C)=O)C(C(O)C(O)CO)O3)C2O)C(O)C1O)C(O)C=CCCCCCCCCCCCCC (centres unmarked) [GM3C24:1] | inhibiting | inhibiting | inhibiting | strongly inhibited | strongly inhibited | inhibitory action | inhibitory action | inhibitory action was also observed | – | – | – | – | – | – | – | – | –
GD1b | – | – | – | – | – | – | – | – | – | almost completely inhibited | significantly strongly inhibited | inhibited in a concentration-dependent manner | almost completely inhibited | inhibited in a concentration-dependent manner | inhibited | strongly inhibited | –
α-Neu5Ac-(2-3)β-Gal-(1-4)-β-Glc-(1-1)-ceramide [GM3, reference compound] | – | – | – | – | – | – | – | – | – | – | significantly increased | – | – | – | – | – | –
CCCCCCCCCCCCCC=CC(O)C(COC1OC(CO)C(OC2OC(CO)C(O)C(OC3(C(=O)O)CC(O)C(NC(C)=O)C(C(O)C(O)CO)O3)C2O)C(O)C1O)NC(=O)CCCCCCCCCCCCCCC (centres unmarked) [GM3C16] | inhibiting | inhibiting | inhibiting | strongly inhibited | strongly inhibited | inhibitory action | inhibitory action | inhibitory action was also observed | – | – | – | – | – | – | – | – | –
GT1b | – | – | – | – | – | – | – | – | – | almost completely inhibited | significantly strongly inhibited | inhibited in a concentration-dependent manner | almost completely inhibited | inhibited in a concentration-dependent manner | inhibited | strongly inhibited | 0.25
CCCCCCCCCCCCCC=CC(O)C(COC1OC(CO)C(OC2OC(CO)C(O)C(OC3(C(=O)O)CC(O)C(NC(C)=O)C(C(O)C(O)CO)O3)C2O)C(O)C1O)NC(=O)CCCCCCCCCCCCCCCCCCCCCCC (centres unmarked) [GM3C24, reference compound] | significantly enhanced | significantly enhanced | significantly enhanced | – | – | selectively increased | selectively increased | – | no increase | – | – | – | – | – | – | – | –
GD1a | – | – | – | – | – | – | – | – | – | almost completely inhibited | strongly inhibited | inhibited in a concentration-dependent manner | almost completely inhibited | inhibited in a concentration-dependent manner | inhibited | strongly inhibited | –
